Measured values: patent publication US8759339B2, “Pyrrolo[2,1-c][1,4]naphthodiazepine linked piperazine compounds and a process for the preparation thereof” (Council of Scientific & Industrial Research, priority 2011, dated 2014)
Read-outs that look alike come from different tables or passages of the source.

Tests used:
[1] = system: MCF7 breast cancer cell line; assay: In vitro anticancer activity, MTT assay; type: cell-based, human; conditions: for IC50: breast cancer cell line, MTT, 48 h continuous drug exposure; for in-vitro cytotoxicity in breast cancer cell line (MCF-7): result in words
Procedure: (§1) In vitro biological activity studies were carried out at the pharmacology division, IICT, Hyderabad. The compounds were evaluated for in vitro anticancer activity against eight tumour cell lines derived from […] cancer types (breast, lung, liver, skeletal, kidney, prostrate, small intestine) as shown in Table 2. For each compound, dose response curves for each cell line were measured at a minimum of five concentrations at 10 fold dilutions. A protocol of 48 h continuous drug exposure was used and a MTT assay was used to estimate cell viability or growth. The concentration causing 50% inhibition (IC50) compared with the control was calculated. Some of the compounds have been evaluated for their in vitro cytotoxicity in eight cell lines from seven human cancer types. The results are expressed as IC50 determined relative to that of untreated control cells (Table-2).

[2] = system: A549 lung cancer cell line; assay: In vitro anticancer activity, MTT assay; type: cell-based, human; conditions: for in-vitro cytotoxicity in lung cancer cell line (A549): result in words
Procedure: as §1

[3] = system: NCIH460 large cell lung cancer cell line; assay: In vitro anticancer activity, MTT assay; type: cell-based, human; conditions: for IC50: large cell lung cancer cell line, MTT, 48 h continuous drug exposure; for in-vitro cytotoxicity in large cell lung cancer cell line (NCIH460): result in words
Procedure: as §1

[4] = system: PC-3 prostrate cancer cell line; assay: In vitro anticancer activity, MTT assay; type: cell-based, human; conditions: for IC50: prostrate cancer cell line, MTT, 48 h continuous drug exposure; for in-vitro cytotoxicity in prostrate cancer cell line (PC-3): result in words
Procedure: as §1

[5] = system: HEPG2 liver cancer cell line; assay: In vitro anticancer activity, MTT assay; type: cell-based, human; conditions: for in-vitro cytotoxicity in liver cancer cell line (HEPG2): result in words
Procedure: as §1

[6] = system: L-6 skeletal cancer cell line; assay: In vitro anticancer activity, MTT assay; type: cell-based; conditions: result in words
Procedure: as §1

L-6 = assay: In vitro anticancer activity, MTT assay; type: cell-based; conditions: skeletal cancer cell line; MTT, 48 h continuous drug exposure
Procedure: as §1

calf thymus DNA (CT-DNA) = assay: Thermal denaturation studies with duplex-form calf thymus DNA; type: binding; conditions: [PND]/[DNA] molar ratio 1:5, CT-DNA 100 μM, ligand 20 μM, aqueous sodium phosphate buffer pH 7; for ΔTm after incubation at 37° C. for 0 hr: 0 hr at 37° C.; for ΔTm after incubation at 37° C. for 18 hrs: 18 hrs at 37° C.
Procedure: Compounds have been subjected to thermal denaturation studies with duplex-form calf thymus DNA (CT-DNA) using an modification of a reported procedure (Newman, M. S. Carcinog-compr. Surv. 1976, 1, 203; (b) Hecht, S. S.; Loy, M.; Hoffman, Carcinog-compr. Surv. 1976, 1, 325). Working solutions in aqueous buffer (10 mM NaH2PO4/Na2HPO4, 1 mM Na2EDTA, pH 7.00+0.01) containing CT-DNA (100 μm in phosphate) and the PND (pyrrolo naphtha diazepine) (20 μm) have been prepared by addition of concentrated PND (pyrrolo naphtha diazepine) solutions in DMSO to obtain a fixed [PND]/[DNA] molar ratio of 1:5. The DNA-PND (pyrrolo naphtha diazepine) solutions have been incubated at 37° C. for 0 and 18 h prior to analysis. Samples have been monitored at 260 nm using a Beckman DU-800 spectrophotometer fitted with high performance temperature controller, and heated at 1° C. min in the 40-110° C. range. DNA helix→coil transition temperatures (Tm) have been obtained from the maxima in the d(A260)/dT derivative plots. Drug-induced alterations in DNA melting behavior are given by: ΔTm=Tm(DNA+PND)−Tm(DNA alone), where the Tm value for the PND-free CT-DNA is 69.1±0.01.
The DNA binding activity for these novel substituted piperazine linked pyrrolo naphtho diazepine hybrids has been examined by thermal denaturation studies using calf thymus (CT) DNA. […] The data for some of the compounds are included in Table 1 for comparison.

[7] = system: COS-1 kidney cancer cell line; assay: In vitro anticancer activity, MTT assay; type: cell-based; conditions: COS-1; range over the listed compounds; exposure period of at least 48 hrs; read-out: IC50 against kidney cancer cell lines
Procedure: as §1

[8] = system: IEC-6 small intestine cell line; assay: In vitro anticancer activity, MTT assay; type: cell-based; conditions: for in-vitro cytotoxicity in small intestine cancer cell line (IEC-6): result in words
Procedure: as §1

[9] = In vitro anticancer activity, MTT assay; type: cell-based; conditions: kidney cancer cell line; MTT, 48 h continuous drug exposure; read-out: IC50 COS-1
Procedure: as §1

[10] = lung cancer cell line, MTT, 48 h continuous drug exposure, read-out: IC50 A549
[11] = liver cancer cell line, MTT, 48 h continuous drug exposure, read-out: IC50 HEPG2
[12] = Homo sapiens, A549, lung cancer cell line, MTT, 48 h continuous drug exposure, read-out: IC50 A549
[13] = Homo sapiens, A549, range over the listed compounds, exposure period of at least 48 hrs, read-out: IC50 against lung cancer cell lines
[14] = Homo sapiens, HepG2, liver cancer cell line, MTT, 48 h continuous drug exposure, read-out: IC50 HEPG2
[15] = Homo sapiens, HepG2, range over the listed compounds, exposure period of at least 48 hrs, read-out: IC50 against liver cancer cell lines
[16] = IEC-6, range over the listed compounds, exposure period of at least 48 hrs, read-out: IC50 against small intestine cancer cell lines
[17] = IEC-6, small intestine cell line, MTT, 48 h continuous drug exposure, read-out: IC50 IEC-6

Structure (SMILES)	IC50 [1] [µM]	in-vitro cytotoxicity in breast cancer cell line (MCF-7) [1]	IC50 [2, 10] [µM]	in-vitro cytotoxicity in lung cancer cell line (A549) [2]	IC50 [3] [µM]	in-vitro cytotoxicity in large cell lung cancer cell line (NCIH460) [3]	IC50 [4] [µM]	in-vitro cytotoxicity in prostrate cancer cell line (PC-3) [4]	IC50 [5, 11] [µM]	in-vitro cytotoxicity in liver cancer cell line (HEPG2) [5]	in-vitro cytotoxicity in skeletal cancer cell line (L-6) [6]	IC50 (L-6) [µM]	ΔTm after incubation at 37° C. for 0 hr (calf thymus DNA (CT-DNA)) [°C]	ΔTm after incubation at 37° C. for 18 hrs (calf thymus DNA (CT-DNA)) [°C]	IC50 ([1]; Homo sapiens, MCF7) [µM]	IC50 [2, 12] [µM]	IC50 [2, 13] [µM]	IC50 ([3]; Homo sapiens, NCI-H460) [µM]	IC50 ([4]; Homo sapiens) [µM]	IC50 [5, 14] [µM]	other results
COc1cc2cc3c(cc2cc1OCCN1CCN(C(C)=O)CC1)N=C[C@@H]1CCCN1C3=O [5a, 8-Methoxy-9-[2-(4-acetylpiperazino)ethoxy]-(13aS)-1,2,3,13a-tetrahydro-5H-pyrrolo[2,1-c][1,4]naphthodiazepin-5-one]	2.88	exhibiting in-vitro cytotoxicity	0.66	exhibiting in-vitro cytotoxicity	1.68	exhibiting in-vitro cytotoxicity	13.5	exhibiting in-vitro cytotoxicity	7.32	exhibiting in-vitro cytotoxicity	exhibiting in-vitro cytotoxicity	2.66	5.5	7.1	–	–	–	–	–	–	–
COc1cc2cc3c(cc2cc1OCCN1CCN(c2ccc(F)cc2)CC1)C(=O)N1CCC[C@H]1C=N3 [20a, 9-Methoxy-8-(2-[4-(4-fluorophenyl)piperazino]ethoxy)-(13aS)-1,2,3,13a-tetrahydro-5H-pyrrolo[2,1-c][1,4]naphthodiazepin-5-one]	–	exhibiting in-vitro cytotoxicity	–	exhibiting in-vitro cytotoxicity	–	exhibiting in-vitro cytotoxicity	–	exhibiting in-vitro cytotoxicity	–	exhibiting in-vitro cytotoxicity	exhibiting in-vitro cytotoxicity	6.36	5.9	7.0	3.99	10.6	0.02 to 11.9	0.99	4.37	4.03	IC50 [5, 15]: 0.02 to 7.32 µM; IC50 [7]: 0.8 to 4.32 µM; IC50 [8, 16]: 0.01 to 5.84 µM; IC50 [8, 17]: 5.84 µM; in-vitro cytotoxicity in small intestine cancer cell line (IEC-6) [8]: exhibiting in-vitro cytotoxicity
COc1cc2cc3c(cc2cc1OCCN1CCN(c2ncccn2)CC1)C(=O)N1CCC[C@H]1C=N3 [24a, 9-Methoxy-8-(2-[4-(2-pyrimidinyl)piperazino]ethoxy)-(13aS)-1,2,3,13a-tetrahydro-5H-pyrrolo[2,1-c][1,4]naphthodiazepin-5-one]	–	exhibiting in-vitro cytotoxicity	–	exhibiting in-vitro cytotoxicity	–	exhibiting in-vitro cytotoxicity	–	exhibiting in-vitro cytotoxicity	–	exhibiting in-vitro cytotoxicity	exhibiting in-vitro cytotoxicity	2.21	4.9	6.5	1.97	11.9	0.02 to 11.9	0.002	0.01	1.04	IC50 [5, 15]: 0.02 to 7.32 µM; IC50 [7]: 0.8 to 4.32 µM; IC50 [8, 16]: 0.01 to 5.84 µM; IC50 [8, 17]: 0.2 µM; in-vitro cytotoxicity in small intestine cancer cell line (IEC-6) [8]: exhibiting in-vitro cytotoxicity
COc1cc2c(cc1O)N=CC1CCCN1C2=O (stereo not shown) [DC-81, reference compound]	12.6	–	17.5	–	8.93	–	14.2	–	5.27	–	–	27.6	0.3	0.7	–	–	–	–	–	–	IC50 [9]: 32.9 µM; IC50 ([8]; small intestine cell line, MTT, 48 h continuous drug exposure, read-out: IC50 IEC-6): 15.4 µM
